Assay: xn = mol fraction of the nth substance listed
Details: Liquid, Vibrating tube method

C=CC(C)(O)CCC=C(C)C (stereo not given) [3,7-dimethyl-1,6-octadien-3-ol] + CC(C)O
mass density [kg/m3]
Details | x2 = 0 | x2 = 0.1031 | x2 = 0.2049 | x2 = 0.3054 | x2 = 0.4056 | x2 = 0.5022 | x2 = 0.605 | x2 = 0.7008 | x2 = 0.7981 | x2 = 0.9092
283.15 K, 100 kPa | 869.5 | 866.3 | 862.7 | – | 854.1 | 848.8 | 842.3 | 834.6 | – | 809.3
283.15 K, 5000 kPa | 872.6 | 869.5 | – | 861.9 | 857.4 | 852.2 | 845.7 | – | 828.2 | 813.1
283.15 K, 10000 kPa | 875.7 | – | 869 | 864.9 | 860.5 | 855.3 | – | 841.4 | 831.6 | 816.6
283.15 K, 15000 kPa | – | 875.5 | 872.1 | 868.1 | 863.7 | – | 852.2 | 844.9 | 835.1 | 820.4
283.15 K, 20000 kPa | 881.5 | 878.5 | 875 | 870.9 | – | 861.6 | 855.3 | 848 | 838.4 | –
283.18 K, 100 kPa | – | – | – | 858.7 | – | – | – | – | 824.5 | –
283.18 K, 5000 kPa | – | – | 865.9 | – | – | – | – | 838.1 | – | –
283.18 K, 10000 kPa | – | 872.5 | – | – | – | – | 848.9 | – | – | –
283.18 K, 15000 kPa | 878.7 | – | – | – | – | 858.6 | – | – | – | –
283.18 K, 20000 kPa | – | – | – | – | 866.7 | – | – | – | – | 823.7
298.15 K, 100 kPa | 857.3 | 854.1 | 850.5 | 846.3 | 841.7 | 836.4 | 829.7 | 821.9 | 812 | 796.8
298.15 K, 5000 kPa | 860.6 | 857.4 | 853.9 | 849.8 | 845.2 | 839.9 | 833.3 | 825.6 | 815.9 | 800.9
298.15 K, 10000 kPa | 863.9 | 860.8 | 857.3 | 853.2 | 848.7 | 843.5 | 837 | 829.4 | 819.7 | 804.9
298.15 K, 15000 kPa | 867 | 864 | 860.5 | 856.5 | 852 | 846.9 | 840.4 | 832.9 | 823.4 | 808.8
298.15 K, 20000 kPa | 870 | 867 | 863.6 | 859.6 | 855.2 | 850.1 | 843.7 | 836.4 | 826.9 | 812.4
313.15 K, 100 kPa | 844.5 | 841.4 | 837.7 | 833.4 | 828.7 | 823.2 | 816.4 | 808.5 | 798.6 | 783.6
313.15 K, 5000 kPa | 848.2 | 845.1 | 841.5 | 837.3 | 832.6 | 827.2 | 820.6 | 812.8 | 803 | 788.2
313.15 K, 10000 kPa | 851.6 | 848.6 | 845.1 | 840.9 | 836.3 | 831 | 824.4 | 816.8 | 807.1 | 792.5
313.15 K, 15000 kPa | 855 | 852.1 | 848.6 | 844.5 | 840 | 834.8 | 828.2 | 820.6 | 811.1 | 796.7
313.15 K, 20000 kPa | 858.4 | 855.4 | 852 | 847.9 | 843.5 | 838.3 | 831.8 | 824.4 | 814.9 | 800.7
328.15 K, 100 kPa | 831.7 | 828.5 | – | 820.4 | 815.5 | 809.9 | 802.8 | – | 784.8 | 769.8
328.15 K, 5000 kPa | 835.6 | – | 828.8 | 824.5 | 819.7 | 814.2 | – | 799.4 | 789.5 | 774.8
328.15 K, 10000 kPa | – | 836.4 | 832.8 | 828.6 | 823.9 | – | 811.6 | 803.9 | 794.2 | 779.7
328.15 K, 15000 kPa | 843.1 | 840.1 | 836.5 | 832.3 | – | 822.3 | 815.6 | 808 | 798.4 | –
328.15 K, 20000 kPa | 846.7 | 843.6 | 840.2 | – | 831.5 | 826.1 | 819.5 | 812 | – | 788.4
328.18 K, 100 kPa | – | – | 824.8 | – | – | – | – | 794.9 | – | –
328.18 K, 5000 kPa | – | 832.5 | – | – | – | – | 807.2 | – | – | –
328.18 K, 10000 kPa | 839.5 | – | – | – | – | 818.4 | – | – | – | –
328.18 K, 15000 kPa | – | – | – | – | 827.8 | – | – | – | – | 784.1
328.18 K, 20000 kPa | – | – | – | 836 | – | – | – | – | 802.6 | –

— the NIST ThermoML archive (doi:10.1021/je100581m)
